The source made the active and inactive calls.
What was measured:
[1] = viability of uninfected HEp-2 cells – cell-based, HTS, cytotoxicity control for RSV inhibitor project, dose response (AID 2410); assay type: functional; details: human respiratory syncytial virus
[2] = cells
[3] = biological target: T1, Heat shock factor protein 1 (Mus musculus, UniProt P38532); experiment: decrease of HSF1-responsive luciferase luminescence – cell-based, NIH3T3, dose retest, confirmation (AID 2382); assay type: functional;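 note: NIH3T3 fibroblasts with HSF1-driven luciferase reporter stressed by proteasome inhibitor MG132; luminescence from HSF1-driven luciferase expression after 8 hours of MG132 stress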
T1 sequence (P38532 whole entry): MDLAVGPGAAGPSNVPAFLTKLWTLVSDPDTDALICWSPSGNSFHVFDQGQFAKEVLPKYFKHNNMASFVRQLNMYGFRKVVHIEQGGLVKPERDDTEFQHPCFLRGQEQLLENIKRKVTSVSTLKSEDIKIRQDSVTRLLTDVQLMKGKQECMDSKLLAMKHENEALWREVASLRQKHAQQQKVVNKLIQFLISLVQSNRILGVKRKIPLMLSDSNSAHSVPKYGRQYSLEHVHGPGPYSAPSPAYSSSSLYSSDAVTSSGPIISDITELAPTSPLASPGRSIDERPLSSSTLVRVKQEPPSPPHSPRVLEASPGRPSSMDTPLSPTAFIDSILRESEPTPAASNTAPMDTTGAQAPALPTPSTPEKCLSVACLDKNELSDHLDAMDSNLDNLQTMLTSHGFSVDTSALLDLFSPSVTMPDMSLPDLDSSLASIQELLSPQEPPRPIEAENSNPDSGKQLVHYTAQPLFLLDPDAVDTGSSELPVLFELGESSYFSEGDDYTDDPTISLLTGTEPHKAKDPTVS

[4] = system: Vero; experiment: Vero cell viability after compound exposure – synthesized analogs, set II, cytotoxicity control for West Nile virus antiviral project, SAR follow-up (AID 2402); assay type: functional; details: Chlorocebus sabaeus
[5] = A Cell Based Assay for the Identification of Probe candidate Compounds with Anti- Venezuelan Equine Encephalitis virus. [Related pubchem assays: 2409, 2419, 1621, 2238, 2405, 2024, 2065, 2402, 2414, 1635, 1650, 2244 ]; assay type: functional

Row | SMILES | CC50 [1] | IC50 [2] | EC50 [3] | CC50 [4] | IC50 [5]
1 | COc1ccc(C(=O)N/C(=C\c2cccs2)c2nc3ccccc3[nH]2)cc1OC | > 50 µM (active) | 25.6 µM (active) | > 195 µM (not active) | – | –
2 | COc1ccc(Cn2nc(C)cc2OC(=O)c2c(F)ccc(C)c2F)cc1 | – | – | – | > 200 µM (active) | 131 µM (active)

Reference: ChEMBL document CHEMBL1201862, “PubChem BioAssay data set” (2004)
